# Measured values published in ChEMBL document CHEMBL1201862, “PubChem BioAssay data set” (2004).
# Activity calls are given as the source filed them.
# What was measured:
# INS1 = experiment: INS-1E survival protection against cytokine death – cell-based, luminescence, retest, dose response (AID 449756); assay type: functional; details: Rattus norvegicus, INS1;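 note: cell death triggered by IL-1 beta plus TNF-alpha plus IFN-gamma mixture; protective hits raise ATP signal compared with cytokine alone wells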
# Streptococcus = experiment: GAS UMAA2166 growth inhibition – luminescence, BacTiterGlo, counter-screen for streptokinase expression inhibitor project, dose response (AID 1915); assay type: functional, organism-based;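 note: potency for reduction of bacterial viability or growth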
# Streptokinase A = molecular target: T1, Streptokinase A (Streptococcus pyogenes serotype M1, UniProt P10520); experiment: viability-normalized secreted streptokinase activity reduction – plasminogen activation absorbance, OD405, dose response (AID 1914); assay type: functional, Streptococcus pyogenes M1 GAS;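 note: secreted streptokinase activity via plasminogen activation per viability signal from cell pellet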
# T1 sequence (P10520 whole entry): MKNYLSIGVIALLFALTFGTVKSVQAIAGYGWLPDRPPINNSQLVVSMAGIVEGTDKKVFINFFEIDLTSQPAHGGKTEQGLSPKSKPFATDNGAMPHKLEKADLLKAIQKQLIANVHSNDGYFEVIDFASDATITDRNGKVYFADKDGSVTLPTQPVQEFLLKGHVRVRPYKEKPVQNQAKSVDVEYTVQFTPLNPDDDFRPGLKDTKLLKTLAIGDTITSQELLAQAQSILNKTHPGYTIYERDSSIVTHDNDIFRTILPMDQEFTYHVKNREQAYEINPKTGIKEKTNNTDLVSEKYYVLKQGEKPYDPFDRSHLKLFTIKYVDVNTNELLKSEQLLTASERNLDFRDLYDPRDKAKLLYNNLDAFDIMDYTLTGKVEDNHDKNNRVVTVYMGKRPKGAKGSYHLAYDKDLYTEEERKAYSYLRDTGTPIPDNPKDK
# [1] = tested on: Streptococcus sp. 'group A'; experiment: Streptococcus pyogenes SK(-)GAS viability under kanamycin – luminescence, BacTiterGlo, confirmation, counter-screen for streptokinase expression inhibitor project, dose response (AID 1900); assay type: functional, organism-based
# [2] = bead-based luminescence quenchers, dual-tagged ARNT – biochemical, AlphaScreen, cherry-pick, artefact control for ARNT-TACC3 interaction inhibitor project, dose response (AID 651705); assay type: functional;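 note: AlphaScreen bead proximity signal that flags compounds interfering with the detection technology; potency reflects signal decrease which marks the compound as an assay artifact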
# Fatty acid synthase [3] = molecular target: T2, Fatty acid synthase (Homo sapiens, UniProt P49327); experiment: inhibition of human FAS-TE enzyme activity – biochemical, endpoint fluorescence intensity, uHTS hits, dose response (AID 624327); assay type: functional;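 note: fluorescence from hydrolysis of an O-methyl fluorescein acyl ester substrate by the enzyme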
# Fatty acid synthase [4] = molecular target: T2, Fatty acid synthase; experiment: inhibition of human FAS-TE enzyme activity – biochemical, kinetic fluorescence intensity, dose response (AID 624326); assay type: functional;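 note: rate of fluorescence rise from hydrolysis of a fluorogenic O-methyl fluorescein ester substrate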
# Escherichia coli = experiment: microbe, parasite or virus in culture
# Vero = experiment: cells; assay type: functional; details: Chlorocebus sabaeus
# Protein skinhead-1 = molecular target: T3, Protein skinhead-1 (Caenorhabditis elegans, UniProt P34707); assay type: functional
# T3 sequence (P34707 whole entry): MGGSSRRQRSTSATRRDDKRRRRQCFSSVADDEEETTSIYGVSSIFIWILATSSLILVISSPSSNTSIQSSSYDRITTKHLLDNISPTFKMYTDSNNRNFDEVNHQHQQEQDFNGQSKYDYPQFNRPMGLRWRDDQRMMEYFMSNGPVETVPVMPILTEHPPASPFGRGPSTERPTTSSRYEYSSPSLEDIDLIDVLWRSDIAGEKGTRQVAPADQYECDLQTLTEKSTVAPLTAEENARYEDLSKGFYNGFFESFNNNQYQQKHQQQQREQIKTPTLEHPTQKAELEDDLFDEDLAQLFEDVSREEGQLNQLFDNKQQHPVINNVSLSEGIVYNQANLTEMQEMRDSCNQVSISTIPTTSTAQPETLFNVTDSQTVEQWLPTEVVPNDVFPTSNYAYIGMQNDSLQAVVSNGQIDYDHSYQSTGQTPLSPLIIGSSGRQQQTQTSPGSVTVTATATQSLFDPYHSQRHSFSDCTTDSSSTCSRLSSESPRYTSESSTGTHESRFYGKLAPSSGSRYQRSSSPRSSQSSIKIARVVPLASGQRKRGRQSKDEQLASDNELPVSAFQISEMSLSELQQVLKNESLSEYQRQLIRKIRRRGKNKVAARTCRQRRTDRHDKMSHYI
# [5] = molecular target: T4, Sentrin-specific protease 1 (Homo sapiens, UniProt Q9P0U3); experiment: Dose response confirmation of small molecule inhibitors of the catalytic domain of the SUMO protease, SENP1 in a FRET assay.; assay type: functional; details: read-out: IC50_Mean
# T4 sequence (Q9P0U3 whole entry): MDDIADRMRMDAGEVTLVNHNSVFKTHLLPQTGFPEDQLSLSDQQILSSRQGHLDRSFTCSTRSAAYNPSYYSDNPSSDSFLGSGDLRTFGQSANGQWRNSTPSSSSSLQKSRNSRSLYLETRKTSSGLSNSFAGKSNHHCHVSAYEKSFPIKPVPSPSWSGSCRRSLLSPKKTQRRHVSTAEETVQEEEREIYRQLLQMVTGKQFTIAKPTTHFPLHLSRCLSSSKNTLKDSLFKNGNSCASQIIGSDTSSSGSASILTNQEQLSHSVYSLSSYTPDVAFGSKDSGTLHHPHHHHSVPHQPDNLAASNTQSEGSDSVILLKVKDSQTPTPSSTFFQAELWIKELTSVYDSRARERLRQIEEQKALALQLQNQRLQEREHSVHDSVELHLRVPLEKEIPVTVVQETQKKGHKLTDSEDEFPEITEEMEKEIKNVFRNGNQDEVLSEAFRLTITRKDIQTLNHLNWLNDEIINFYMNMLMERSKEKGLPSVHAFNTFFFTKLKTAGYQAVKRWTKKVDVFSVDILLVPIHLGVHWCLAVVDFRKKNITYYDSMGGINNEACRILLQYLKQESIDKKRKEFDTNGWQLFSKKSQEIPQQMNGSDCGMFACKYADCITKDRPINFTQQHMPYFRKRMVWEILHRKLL
# [6] = molecular target: T4, Sentrin-specific protease 1; experiment: SENP1 catalytic domain blockers, concentration series – biochemical, kinetic FRET, dose response (AID 651697); assay type: functional; details: read-out: IC50_Mean
# [7] = molecular target: T5, Carboxy-terminal domain RNA polymerase II polypeptide A small phosphatase 1 (Homo sapiens, UniProt Q9GZU7); experiment: CTDSP1 inhibitors, concentration-response, biochemical, absorbance readout, ultra-high-throughput screen actives (AID 540297); assay type: functional
# T5 sequence (Q9GZU7 whole entry): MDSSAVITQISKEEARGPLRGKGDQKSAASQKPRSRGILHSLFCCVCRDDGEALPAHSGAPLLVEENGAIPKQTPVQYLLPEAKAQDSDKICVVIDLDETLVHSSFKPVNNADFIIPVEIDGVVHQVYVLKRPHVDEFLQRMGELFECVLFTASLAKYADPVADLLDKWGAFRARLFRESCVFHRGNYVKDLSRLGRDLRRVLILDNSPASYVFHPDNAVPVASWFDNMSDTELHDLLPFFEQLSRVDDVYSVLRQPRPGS
# [8] = intracellular Trypanosoma cruzi inhibitors in host cells – cell-based, plate reader, cherry-pick samples, set 3, dose response (AID 651818); assay type: functional;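 note: compounds incubated with infected cells for about four days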
# [9] = molecular target: T6, Short transient receptor potential channel 4 (Mus musculus, UniProt Q9QUQ5); experiment: calcium entry via TRPC4 opening agents – cell-based, HEK293 TRPC4/mu-opioid, Fluo-4 calcium, dose response (AID 434937); assay type: functional
# T6 sequence (Q9QUQ5 whole entry): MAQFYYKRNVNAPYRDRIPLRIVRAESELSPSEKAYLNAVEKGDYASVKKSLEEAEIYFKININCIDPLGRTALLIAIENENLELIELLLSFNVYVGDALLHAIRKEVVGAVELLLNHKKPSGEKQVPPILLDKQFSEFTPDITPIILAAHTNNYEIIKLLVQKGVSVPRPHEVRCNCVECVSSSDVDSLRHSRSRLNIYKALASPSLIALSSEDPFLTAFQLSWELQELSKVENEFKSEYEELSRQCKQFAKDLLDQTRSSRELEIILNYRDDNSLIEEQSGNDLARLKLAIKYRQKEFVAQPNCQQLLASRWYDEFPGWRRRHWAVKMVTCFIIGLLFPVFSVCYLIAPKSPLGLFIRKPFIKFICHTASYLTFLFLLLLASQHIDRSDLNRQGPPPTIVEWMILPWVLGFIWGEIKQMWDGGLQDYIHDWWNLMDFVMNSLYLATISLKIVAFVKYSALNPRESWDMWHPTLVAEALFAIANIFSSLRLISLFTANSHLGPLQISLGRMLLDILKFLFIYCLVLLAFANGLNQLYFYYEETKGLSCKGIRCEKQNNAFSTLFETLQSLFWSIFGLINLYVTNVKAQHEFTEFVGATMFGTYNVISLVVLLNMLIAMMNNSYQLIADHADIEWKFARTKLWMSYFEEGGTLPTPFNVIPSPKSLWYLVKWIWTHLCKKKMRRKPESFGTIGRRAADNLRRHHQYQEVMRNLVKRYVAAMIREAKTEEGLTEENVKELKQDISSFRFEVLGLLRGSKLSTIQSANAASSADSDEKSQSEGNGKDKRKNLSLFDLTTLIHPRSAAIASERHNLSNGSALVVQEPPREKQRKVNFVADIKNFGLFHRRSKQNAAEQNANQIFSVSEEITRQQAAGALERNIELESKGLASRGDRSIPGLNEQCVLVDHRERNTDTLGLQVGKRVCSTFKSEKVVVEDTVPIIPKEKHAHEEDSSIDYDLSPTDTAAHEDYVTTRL
# Protein Wnt-3a = Protein Wnt-3a (Mus musculus, UniProt P27467); experiment: antagonism of Wnt3a pathway luciferase reporter – Wnt-LIGHT cells, luminescence, selectivity assay for Gli-SUFU antagonist project, dose response (AID 651570); assay type: functional; details: read-out: IC50_Mean;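 note: Wnt-LIGHT reporter cells stimulated with conditioned medium from Wnt3a-producing cells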
# Nonstructural protein 1 = Nonstructural protein 1 (Influenza A virus, UniProt Q194T2); assay type: functional, Influenza A virus (A/California/07/2009(H1N1))
# [10] = fluconazole-exposed Candida albicans growth modulators – fluorescence, retest, confirmation (AID 2467); assay type: functional, cell-based
# [11] = viability of PTEN-deleted HCT116 cells – cell-based, HCT116 PTEN knockout, dose response (AID 1047); assay type: functional;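 note: HCT116 colon tumor cells with PTEN knocked out; cells exposed to compound for 60 hours before readout; potency for loss of cell viability measured by luminescence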
# [12] = viability of HCT116 lacking mutant beta-catenin – cell-based, human colon tumor, dose response (AID 1045); assay type: functional;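 note: HCT116 colon tumor cells with beta catenin knocked out; cells exposed to compound for 60 hours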
# [13] = NIH-3T3 fibroblast cytotoxicity, dose response, cytotoxicity control, cell-based, fluorescence, Alamar Blue, secondary assay (AID 2327); assay type: functional;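 note: NIH-3T3 mouse fibroblasts cultured with fluconazole at 8 µg/mL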
# T2 sequence (P49327 whole entry): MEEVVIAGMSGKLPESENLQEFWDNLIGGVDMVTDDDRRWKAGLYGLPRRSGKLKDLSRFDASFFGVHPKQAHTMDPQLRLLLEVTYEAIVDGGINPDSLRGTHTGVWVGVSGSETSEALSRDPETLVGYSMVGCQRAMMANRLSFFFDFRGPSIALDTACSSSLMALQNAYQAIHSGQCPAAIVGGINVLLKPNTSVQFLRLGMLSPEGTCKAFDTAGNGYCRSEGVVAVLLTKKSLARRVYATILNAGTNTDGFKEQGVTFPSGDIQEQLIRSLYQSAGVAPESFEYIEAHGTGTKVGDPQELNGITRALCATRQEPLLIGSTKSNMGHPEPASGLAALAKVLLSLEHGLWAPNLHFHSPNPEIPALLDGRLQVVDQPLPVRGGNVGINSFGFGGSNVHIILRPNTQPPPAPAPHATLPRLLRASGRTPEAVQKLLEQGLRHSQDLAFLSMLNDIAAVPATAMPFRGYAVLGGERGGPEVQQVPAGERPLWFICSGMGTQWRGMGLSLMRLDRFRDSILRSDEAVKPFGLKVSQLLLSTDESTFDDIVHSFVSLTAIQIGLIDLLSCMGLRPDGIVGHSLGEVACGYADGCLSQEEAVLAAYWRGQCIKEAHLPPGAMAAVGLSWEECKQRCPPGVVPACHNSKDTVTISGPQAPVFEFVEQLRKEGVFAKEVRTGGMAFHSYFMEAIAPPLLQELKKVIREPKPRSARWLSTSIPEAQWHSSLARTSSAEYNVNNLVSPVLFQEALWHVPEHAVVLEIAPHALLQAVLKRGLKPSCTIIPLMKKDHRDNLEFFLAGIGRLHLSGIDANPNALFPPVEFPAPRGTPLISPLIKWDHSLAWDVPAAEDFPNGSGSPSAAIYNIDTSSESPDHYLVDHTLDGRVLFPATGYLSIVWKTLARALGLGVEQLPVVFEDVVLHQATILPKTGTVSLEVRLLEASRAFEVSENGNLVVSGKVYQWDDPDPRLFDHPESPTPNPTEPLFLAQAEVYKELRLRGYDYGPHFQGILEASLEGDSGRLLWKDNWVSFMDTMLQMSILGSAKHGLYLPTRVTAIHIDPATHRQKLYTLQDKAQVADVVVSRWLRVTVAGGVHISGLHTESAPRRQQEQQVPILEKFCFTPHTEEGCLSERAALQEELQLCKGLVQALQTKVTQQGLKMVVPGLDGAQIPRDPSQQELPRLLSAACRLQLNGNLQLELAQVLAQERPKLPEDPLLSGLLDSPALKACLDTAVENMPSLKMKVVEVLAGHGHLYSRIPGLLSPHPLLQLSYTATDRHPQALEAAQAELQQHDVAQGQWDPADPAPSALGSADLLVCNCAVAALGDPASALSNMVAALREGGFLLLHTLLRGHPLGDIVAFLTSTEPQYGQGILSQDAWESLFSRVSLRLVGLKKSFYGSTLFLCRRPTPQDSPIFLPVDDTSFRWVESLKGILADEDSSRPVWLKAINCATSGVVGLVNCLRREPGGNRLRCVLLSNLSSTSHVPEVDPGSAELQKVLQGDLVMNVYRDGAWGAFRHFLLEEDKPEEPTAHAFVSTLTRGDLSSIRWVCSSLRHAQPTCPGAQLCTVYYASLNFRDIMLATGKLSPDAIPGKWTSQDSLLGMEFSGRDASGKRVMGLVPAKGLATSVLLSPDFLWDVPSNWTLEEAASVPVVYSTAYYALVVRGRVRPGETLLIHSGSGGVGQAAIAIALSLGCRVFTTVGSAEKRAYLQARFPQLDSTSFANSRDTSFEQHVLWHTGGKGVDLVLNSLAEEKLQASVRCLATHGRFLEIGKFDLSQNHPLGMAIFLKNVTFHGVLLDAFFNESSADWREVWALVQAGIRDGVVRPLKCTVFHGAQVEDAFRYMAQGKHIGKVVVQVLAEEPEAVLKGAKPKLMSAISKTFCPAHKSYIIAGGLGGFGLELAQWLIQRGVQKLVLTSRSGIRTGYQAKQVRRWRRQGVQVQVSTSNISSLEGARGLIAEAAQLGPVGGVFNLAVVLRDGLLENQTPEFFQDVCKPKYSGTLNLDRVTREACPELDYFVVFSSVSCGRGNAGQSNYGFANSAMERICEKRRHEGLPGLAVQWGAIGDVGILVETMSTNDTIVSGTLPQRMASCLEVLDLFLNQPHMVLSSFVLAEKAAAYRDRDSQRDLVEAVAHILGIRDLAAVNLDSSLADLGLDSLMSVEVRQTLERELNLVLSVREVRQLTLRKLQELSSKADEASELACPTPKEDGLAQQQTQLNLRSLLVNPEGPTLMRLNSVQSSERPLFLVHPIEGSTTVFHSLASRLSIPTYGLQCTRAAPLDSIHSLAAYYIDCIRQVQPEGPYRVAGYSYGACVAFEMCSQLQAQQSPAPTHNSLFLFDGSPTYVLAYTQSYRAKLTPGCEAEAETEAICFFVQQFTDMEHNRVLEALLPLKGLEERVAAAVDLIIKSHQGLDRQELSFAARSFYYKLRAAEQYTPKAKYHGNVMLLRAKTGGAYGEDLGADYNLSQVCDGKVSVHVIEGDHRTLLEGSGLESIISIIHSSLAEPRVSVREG
# Protein Wnt-3a, sequence (P27467 whole entry): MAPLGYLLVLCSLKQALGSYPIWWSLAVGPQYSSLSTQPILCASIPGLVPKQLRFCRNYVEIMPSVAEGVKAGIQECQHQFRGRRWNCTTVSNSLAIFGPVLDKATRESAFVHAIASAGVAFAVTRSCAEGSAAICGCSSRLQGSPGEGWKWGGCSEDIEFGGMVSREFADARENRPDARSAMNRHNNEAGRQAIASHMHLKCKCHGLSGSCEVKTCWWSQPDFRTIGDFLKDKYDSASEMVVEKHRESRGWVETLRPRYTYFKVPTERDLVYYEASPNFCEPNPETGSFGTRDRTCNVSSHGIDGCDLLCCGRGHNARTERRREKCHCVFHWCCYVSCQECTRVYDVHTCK
# Nonstructural protein 1, sequence (Q194T2 whole entry): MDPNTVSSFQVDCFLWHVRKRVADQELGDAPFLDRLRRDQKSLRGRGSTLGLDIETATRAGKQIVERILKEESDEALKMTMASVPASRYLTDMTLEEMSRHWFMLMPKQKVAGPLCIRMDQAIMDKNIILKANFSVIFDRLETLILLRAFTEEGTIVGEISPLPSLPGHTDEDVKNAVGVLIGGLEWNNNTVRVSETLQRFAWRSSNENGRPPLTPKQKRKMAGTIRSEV
smiles,measurement,setting,value
c1ccc(CNc2nc(-c3ccccn3)nc3ccccc23)cc1,AC50,INS1,2.62 µM (active)
same,EC50,Streptococcus,6.86 µM (active)
same,EC50,Streptokinase A,> 150 µM (not active)
same,EC50,[1],2.57 µM (active)
same,AC50,[2],80.1 µM (active)
Cc1cccc(NC(=O)CSc2cccc3cccnc23)c1C,AC50,[2],91.7 µM (active)
Cc1ccccc1N(CC(=O)NCc1ccc2c(c1)OCO2)C(=O)C1CSC(=O)C1 (stereo not given),IC50,Fatty acid synthase [3],5.85 µM (active)
same,IC50,Fatty acid synthase [4],4.48 µM (active)
COC(=O)c1ccc(C2CC(=O)Nc3cc(OC)c(OC)cc32)cc1 (stereo not given),AC50,Escherichia coli,32 µM (active)
CCOC(=O)c1c(NC(=O)CN2CCN(C)CC2)sc(C(=O)Nc2ccccc2)c1C,CC50,Vero,> 25 µM (active)
c1csc(Cn2nnnc2CN2CCN(c3nc4ccccc4s3)CC2)c1,IC50,Protein skinhead-1,> 100 µM (inactive)
O=C1C=C(c2cccc(Cl)c2O)C[C@@H](c2ccc(F)cc2)C1,IC50,[5],1.14 µM (active)
same,IC50,[6],2.61 µM (active)
Cc1ccc(C(=O)N/C(=C\c2cn(S(=O)(=O)N(C)C)c3ccccc23)C(=O)NCCN2CCOCC2)cc1,IC50,Fatty acid synthase [3],12.7 µM (active)
same,IC50,Fatty acid synthase [4],16.5 µM (active)
C[C@H]1CN([C@@H](C)CO)C(=O)c2cccc(NC(=O)c3ccncc3)c2O[C@H]1CN(C)C(=O)Nc1ccccc1,IC50,[7],13.8 µM (active)
same,AC50,[8],2.61 µM (active)
COc1ccc(C2=Nn3c(nnc3-c3ccccn3)SC2)cc1,AC50,[2],125 µM (active)
Cc1ccc([N+](=O)[O-])cc1NC(=O)c1ccc(C(C)(C)C)cc1,IC50,Fatty acid synthase [3],5.57 µM (active)
same,IC50,Fatty acid synthase [4],4.59 µM (active)
Cc1sc(-c2ccccn2)nc1OC(=O)c1ccc(F)cc1F,IC50,[5],16.6 µM (active)
same,IC50,[6],3.57 µM (active)
COc1ccc(/C=C(/NC(=O)c2cccc([N+](=O)[O-])c2)C(=O)O)cc1,AC50,Escherichia coli,84.9 µM (active)
O=C(NCCc1cccc(Cl)c1)c1ccc(OC2CCN(Cc3ccccn3)CC2)cc1,EC50,[9],0.944 µM (active)
same,IC50,Protein Wnt-3a,28.8 µM (inactive)
COc1ccccc1/C=C1\SC(=S)N(CCC(=O)NCCc2ccc(O)cc2)C1=O,CC50,Vero,> 25 µM (active)
O=C(CSc1nc(-c2ccco2)cc(C(F)(F)F)n1)NC1CCCCCCC1,IC50,Protein skinhead-1,> 100 µM (inactive)
C[C@H](CO)N1C[C@H](C)[C@H](CN(C)Cc2ccc(C(F)(F)F)cc2)Oc2c(NC(=O)CCCCCC(=O)Nc3ccccc3N)cccc2C1=O,AC50,[8],1.92 µM (active)
C[C@H](CO)N1C[C@H](C)[C@H](CN(C)Cc2ccc(C(=O)Nc3ccccc3N)cc2)Oc2ccc(N(C)C)cc2CC1=O,AC50,[8],2.03 µM (active)
C[C@H](CO)N1C[C@H](C)[C@H](CN(C)S(=O)(=O)c2ccccc2)Oc2ccc(NC(=O)Nc3ccc(C(F)(F)F)cc3)cc2CC1=O,AC50,[8],4.13 µM (active)
O=[N+]([O-])c1ccc(O)c(/C=N/Nc2nc3ccccc3[nH]2)c1,IC50,Nonstructural protein 1,10.3 µM (active)
same,AC50,INS1,0.559 µM (active)
same,EC50,Streptococcus,1.56 µM (active)
same,EC50,[1],0.716 µM (active)
same,AC50,Escherichia coli,25.6 µM (active)
S=C(Nc1ccccc1)Nc1nc2ccccc2n1CCOc1ccc(Cl)cc1,EC50,[10],2.58 µM (active)
same,IC50,Protein skinhead-1,> 100 µM (inactive)
same,EC50,[11],17.1 µM (active)
same,EC50,[12],16 µM (active)
same,EC50,[13],11.1 µM (active)
